Results as given in article PMC9117324 (Scientific Reports, 2022).
“And” between values parts separate entries of the source, which are not always exact repeats. Identical values can stand only once.

Columns and labels:
MCF-7 cells [1] = experiment: Cell cycle distribution by PI flow cytometry, MCF-7; assay type: cell-based, Human; conditions: MCF-7, IC50 concentration, 48 h
Experimental: (§1) Evaluation of cell cycle progression was performed by flow cytometry of propidium iodide and can identify the fraction of time spent by cells in various stages of the cell cycle. […] Cell cycle distribution was determined by flow cytometry by the protocol described previously. The control condition consisted of cells cultured in the absence of treatment but in the presence of PI. After harvesting the cells with trypsin, they were rinsed and fixed with 70% ethanol and kept for 3 days at 4 °C. Then, the samples were centrifuged, and after removal of supernatants […], the cells were dispersed in 300 µL of PBS. Next, after adding 10 µL of ribonuclease-A (10 mg/mL) and 45 min of incubation, 10 µL propidium iodide (1 mg/mL) was added to each of the samples and vortexed. After 10 min of incubation at room temperature and in the dark, the cells were examined by a FACSCalibur flow cytometer to estimate the cell cycle phases. FlowJo 7.6 software was used to analyze the cell cycle.

MCF-7 cells [2] = experiment: Annexin V-FITC/PI apoptosis flow cytometry, MCF-7; assay type: cell-based, Human; conditions: MCF-7, IC50 concentration, 48 h
Experimental: (§2) After washing the cells with cold PBS, they were resuspended in 100 µl binding buffer containing Annexin V-FITC (5 μL) and PI (5 μL) solution. After incubation for 15 min at room temperature, cells were washed and suspended in 100 μL of 1 × binding buffer. Cells were investigated by a FACSCanto II ([…]) flow cytometry system. The percentage of apoptotic cells was calculated by summation of the cells in (annexin V+ , PI−) and (annexin V+ , PI+) and the percentage of necrotic cells achieved from (annexin V−, PI+). An Annexin-V/PI assay was performed via flow cytometry to measure the percentage of cells with early and late apoptotic changes.

A549 cells [3] = experiment: Cell cycle distribution by PI flow cytometry, A549; assay type: cell-based, Human; conditions: A549, IC50 concentration, 48 h
Experimental: as §1

[4] = system: Hek293 human embryonic kidney cells; experiment: MTT cell viability assay, Hek293 (nephrotoxicity); assay type: cell-based; conditions: Hek293 normal kidney cells, 24 h
Experimental: All cancer cells were cultured in RPMI 1640 medium with 10% FBS in a humidified incubator of 95% air and 5% CO2 at 37 °C. […] Then, […] of MTT solution (5 mg/ml) was added to every well and kept at 37 °C for 4 h in the dark. After removing the medium, 200 µl DMSO was added, and the solution was kept on a shaker for approximately 15 min until the formazan solved completely. The absorbance was evaluated at 490 nm with an ELISA reader. The IC50 was computed by GraphPad Prism 7.0 software. […] Cell viability was assessed with MTT and is presented relative to untreated cells (set to 100%).

[5] = system: MCF-7 human breast cancer cells; experiment: MTT cell viability assay, MCF-7; assay type: cell-based
Experimental: (§3) All cancer cells were cultured in RPMI 1640 medium with 10% FBS in a humidified incubator of 95% air and 5% CO2 at 37 °C. […] Then, […] of MTT solution (5 mg/ml) was added to every well and kept at 37 °C for 4 h in the dark. After removing the medium, 200 µl DMSO was added, and the solution was kept on a shaker for approximately 15 min until the formazan solved completely. The absorbance was evaluated at 490 nm with an ELISA reader. The IC50 was computed by GraphPad Prism 7.0 software. […] All of cell lines were treated for three different duration times (24, 48 and 72 h). The Caco-2 cells were very sensitive to Pt(TSC)Cl in comparison with the two others in all three different durations of treatment. We also used cisplatin, a commercially available platinum-based compound, as a reference. […] Cell viability was assessed with MTT and is presented relative to untreated cells (set to 100%).

[6] = system: A549 human lung cancer cells; experiment: MTT cell viability assay, A549; assay type: cell-based
Experimental: as §3

A549 cells [7] = experiment: Annexin V-FITC/PI apoptosis flow cytometry, A549; assay type: cell-based, Human; conditions: A549, IC50 concentration, 48 h
Experimental: as §2

[8] = system: MCF-7, A549 and Caco-2 cell lines; experiment: Real time PCR of apoptosis pathway genes; assay type: cell-based, Human; conditions: IC50 values, 48 h, GAPDH reference gene
Experimental: Then, the cells were rinsed with cold PBS and harvested. Total RNA was isolated from MCF-Z, A549, and Caco-2 cell lines by the TRIzol method (TRIzol™ Reagent (Invitrogen, Catalog number: 15596026)). Briefly, the cells were centrifuged at 500 g at 4 °C, the plates were processed for cell lysate by 750 μl of RiboEx; then 200 μl chloroform was subjoined to the cell lysate and after incubating for 2 min at room temperature, they were centrifuged at 12,000 g for 20 min (4 °C). Following collection of aqueous phases, one volume of isopropyl alcohol was dispensed for precipitation of total RNA at 12,000 g for 20 min (4 °C). The RNA plate was rinsed with 75% ethanol and dissolved in deep water. Complementary DNA (cDNA) synthesis was performed by Revert Aid Reverse Transcriptase (Cat numb: EP0441, Thermo Scientific, Lithuania) according to the manufacturer’s instructions. For evaluation of the apoptosis pathway genes, real time PCR was carried out based on the following PCR program[28]: initial denaturation at 95 °C for 15 min, 45 cycles of denaturation at 95 °C for 15 sec, and annealing/extension at 60 °C for 50 sec. The real time PCR mixture contained 5 μL 2x SYBR Green Master Mix (RealQ Plus 2x Master Mix Green, Ampliqon, Denmark), 2 μL cDNA, 0.5 μL of 5 pmol/μL primer pair mix (Eurofin, Germany), and 3 μL H2O. […]

Caco-2 cells [9] = experiment: Annexin V-FITC/PI apoptosis flow cytometry, Caco-2; assay type: cell-based, Human; conditions: Caco-2, IC50 concentration, 48 h
Experimental: as §2

[10] = system: Caco-2 human colon cancer cells; experiment: MTT cell viability assay, Caco-2; assay type: cell-based; conditions: for IC50: MTT
Experimental: All cancer cells were cultured in RPMI 1640 medium with 10% FBS in a humidified incubator of 95% air and 5% CO2 at 37 °C. […] Then, […] of MTT solution (5 mg/ml) was added to every well and kept at 37 °C for 4 h in the dark. After removing the medium, 200 µl DMSO was added, and the solution was kept on a shaker for approximately 15 min until the formazan solved completely. The absorbance was evaluated at 490 nm with an ELISA reader. The IC50 was computed by GraphPad Prism 7.0 software. […] All of cell lines were treated for three different duration times (24, 48 and 72 h). […] Cell viability was assessed with MTT and is presented relative to untreated cells (set to 100%).

Caco-2 cells [11] = experiment: Cell cycle distribution by PI flow cytometry, Caco-2; assay type: cell-based, Human; conditions: Caco-2, IC50 concentration, 48 h
Experimental: as §1

Caco-2 cells [12] = experiment: Western blot of apoptotic proteins; assay type: cell-based, Human; conditions: Caco-2, IC50 value, 48 h
Experimental: Assessment of apoptotic protein level alterations by western blot analysis by the protocol described previously. The control included cells without treatment. To provide the cell lysate, cells were collected and treated with the following materials: RIPA buffer [500 µL of Tris–HCl (pH = 8), one tablet of protease inhibitor cocktail, 0.003 g EDTA, 0.08 g NaCl, 0.025 g sodium deoxycholate, 0.01 g SDS and 10 µl of Triton NP40 (1%)] used at 4 °C. After that, the cells were centrifuged at 12,000 rpm for 10 min at 4 °C. To measure total protein, the supernatant of cells was determined by the Bradford assay (Bio–Rad protein assay, Bio–Rad Laboratories, USA) using a spectrophotometer (Bibby Scientific Ltd, Beacon Rd, UK). The portions of target protein received from the sodium dodecyl sulfate–polyacrylamide gel electrophoresis (SDS–PAGE) were carried over the polyvinylidene difluoride (PVDF) membrane and were blocked with TBST buffer containing 5% (w/v) skim milk (0.1% v/v Tween®20-tris buffered saline: TBST). The blocked PVDF membranes that contained the target proteins were incubated with specific primary antibodies: Bax (B-9) mouse monoclonal antibody (Santa Cruz) (1:1000), Bcl-2 sc-492 (Santa Cruz) rabbit monoclonal antibody (1:1000), caspase-7 (C7) (Cell Signaling) rabbit polyclonal antibody (1:1000), Caspase-3 Cell Signaling rabbit monoclonal antibody (1:1000), caspase-9 (Cell Signaling) rabbit polyclonal antibody (1:1000), GAPDH (Santa Cruz) mouse monoclonal antibody (1:1000) and P27 (Elabscience) rabbit polyclonal antibody (1:400) that were diluted with blocking buffer) overnight at 4 °C. The membrane was washed with TBST and incubated with secondary antibodies (m-IgGκ BP-HRP (Santa Cruz) for Bax (B-9), Bcl-2 and GAPDH, and mouse anti-rabbit IG-HRP (Santa Cruz) was used for Caspase-3, 7, 9 and P27, which were diluted using blocking buffer (1:1000).) for 1 h at room temperature. The target protein bands were visualized by an enhanced chemiluminescence detection kit (Thermo Fisher Scientific, Breda, the Netherlands) and Amersham® Imager 600 system (GE Healthcare Life Sciences, Eindhoven, Netherlands). Finally, the western blotting results were normalized to the expression of GAPDH as the loading control. All the protein bands were quantified by ImageJ software (v. 1.52n).

N.N.[Cl][Pt][Cl] [cisplatin, reference compound]
G2/M, percentage of cells (MCF-7 cells [1]): 15.88%
S, percentage of cells (MCF-7 cells [1]): 37.2%
G0/G1, percentage of cells (MCF-7 cells [1]; listed as Cis): 37.21%
S, percentage of cells (MCF-7 cells [1]; listed as Cis): 37.43%
SubG1, percentage of cells (MCF-7 cells [1]; listed as Cis): 6.8%
Early apoptosis (PI-/FITC+) cells (Q3) (MCF-7 cells [2]): 8.48%
Late apoptosis (PI+/FITC+) cells (Q2) (MCF-7 cells [2]): 10.4%
Necrosis (PI+/FITC-) cells (Q1) (MCF-7 cells [2]): 3.24%
percentage of apoptotic cells (early + late) (MCF-7 cells [2]): 18.88%
SubG1, percentage of cells (A549 cells [3]): 0.42%
G0/G1, percentage of cells (A549 cells [3]; listed as Cis): 66.94%
G2/M, percentage of cells (A549 cells [3]; listed as Cis): 16.08%
S, percentage of cells (A549 cells [3]; listed as Cis): 16.13%
IC50 [4]: 4.15 µM
IC50 ([5]; MCF-7, 24 h): 162 µM
IC50 ([5]; MCF-7, 48 h): 142 µM
IC50 ([5]; MCF-7, 72 h): 150 µM
IC50 ([6]; A549, 24 h): 96.8 µM
IC50 ([6]; A549, 48 h): 42.9 µM
IC50 ([6]; A549, 72 h): 13.1 µM
Early apoptosis (PI-/FITC+) cells (Q3) (A549 cells [7]): 7.50%
Late apoptosis (PI+/FITC+) cells (Q2) (A549 cells [7]): 7.83%
Necrosis (PI+/FITC-) cells (Q1) (A549 cells [7]): 1.73%
percentage of apoptotic cells (early + late) (A549 cells [7]): 15.33%

[Cl][Pt-2]12[S]C(Nc3ccccc3)=N[N+]1=Cc1cccc[n+]12 (stereo not drawn) [Pt(TSC)Cl complex, [Pt(TSC)Cl]]
expression of apoptotic pathway genes Bax and Caspases 9, 3 and 7 vs control [8]: upregulated
G0/G1, percentage of cells (MCF-7 cells [1]): 53.17%
G2/M, percentage of cells (MCF-7 cells [1]): 14.70%
S, percentage of cells (MCF-7 cells [1]): 28% and 27.72%
SubG1, percentage of cells (MCF-7 cells [1]): 4.95%
Late apoptosis (PI+/FITC+) cells (Q2) (Caco-2 cells [9]): 52.4%
Necrosis (PI+/FITC-) cells (Q1) (Caco-2 cells [9]): 4.79%
Viable (PI-/FITC-) cells (Q4) (Caco-2 cells [9]): 5.58%
IC50 ([10]; Caco-2, 24 h): 17.2 µM
fold more toxicity than cisplatin ([10]; Caco-2, 48 h): 46 fold
IC50 ([10]; Caco-2, 48 h): 2.3 µM
IC50 ([10]; Caco-2, 72 h): 1.75 µM
Early apoptosis (PI-/FITC+) cells (Q3) (MCF-7 cells [2]): 6.47%
Late apoptosis (PI+/FITC+) cells (Q2) (MCF-7 cells [2]): 23.8%
Necrosis (PI+/FITC-) cells (Q1) (MCF-7 cells [2]): 2.38%
Viable (PI-/FITC-) cells (Q4) (MCF-7 cells [2]): 67.3%
G0/G1, percentage of cells (A549 cells [3]): 47.71%
G2/M, percentage of cells (A549 cells [3]): 15.66%
S, percentage of cells (A549 cells [3]): 13.94%
SubG1, percentage of cells (A549 cells [3]): 22% and 21.78%
IC50 [4]: 63.9 µM
G0/G1, percentage of cells (Caco-2 cells [11]): 30.34%
G2/M, percentage of cells (Caco-2 cells [11]): 5.08%
S, percentage of cells (Caco-2 cells [11]): 14.91%
SubG1, percentage of cells (Caco-2 cells [11]): ~51%
Bcl2 protein levels (Caco-2 cells [12]): downregulation
Bax protein level, fold vs control group (Caco-2 cells [12]; normalized to GAPDH): 1.9 fold
caspase 3 protein level, fold vs control group (Caco-2 cells [12]; normalized to GAPDH): 1.97 fold
caspase 7 protein level, fold vs control group (Caco-2 cells [12]; normalized to GAPDH): 1.92 fold
caspase 9 protein level, fold vs control group (Caco-2 cells [12]; normalized to GAPDH): 3.2 fold
p27 protein, fold increase vs control group (Caco-2 cells [12]; normalized to GAPDH): 2.14 fold
IC50 ([5]; MCF-7, 24 h): 200 µM
IC50 ([5]; MCF-7, 48 h): 193 µM
IC50 ([5]; MCF-7, 72 h): 181 µM
IC50 ([6]; A549, 24 h): 147 µM
IC50 ([6]; A549, 48 h): 102 µM
IC50 ([6]; A549, 72 h): 69.3 µM
Early apoptosis (PI-/FITC+) cells (Q3) (A549 cells [7]): 3.74%
Late apoptosis (PI+/FITC+) cells (Q2) (A549 cells [7]): 7.12%
Necrosis (PI+/FITC-) cells (Q1) (A549 cells [7]): 3.9%
Viable (PI-/FITC-) cells (Q4) (A549 cells [7]): 85.2%
percentage of apoptotic cells (early + late) (A549 cells [7]): 10.86%
